# Experimental data reported in patent US12521373B2, “Use of losartan for the treatment of fibrotic diseases, in particular epidermolysis bullosa” (Crowd Pharma Losartan GmbH & Co. KG, priority 2020, dated 2026).
# Experiments:
# Assay type in all cases: in vivo, human
# [1] = test system: children with moderate to severe RDEB; experiment: Epidermolysis Bullosa Disease Activity and Scarring Index (EBDASI) in clinical trial
# From the text: In order to check whether beneficial effects could be obtained in human beings, a clinical trial has been performed. In the trial a group of about 30 patients has been selected. Patient enrollment: 28 children with molecularly confirmed diagnosis of moderate to severe RDEB, age 2-16 years (age of 25 months), were enrolled at the EB Center Freiburg. A validated scoring instrument for EB that assesses response to therapy separately from chronic damage. It is therefore suitable for interventional trials. […] It includes an activity and damage component for: 1. skin; 2. scalp; 3. mucous membranes; 4. nails; 5. other epithelialized surfaces (incl. larynx, esophagus, genitourinary), hands-pseudosyndactyly and skin cancer. Statistical values for EBDASI are shown in FIG. 2 when determined at the visits in the clinic.
# [2] = test system: children with moderate to severe RDEB; experiment: Birmingham Epidermolysis Bullosa Severity Score (BEBS) in clinical trial; settings: second interim analysis, baseline (clinic visit 1, day 1) vs clinic visit 5, week 40, FIG. 9
# From the text: In order to check whether beneficial effects could be obtained in human beings, a clinical trial has been performed. In the trial a group of about 30 patients has been selected. Patient enrollment: 28 children with molecularly confirmed diagnosis of moderate to severe RDEB, age 2-16 years (age of 25 months), were enrolled at the EB Center Freiburg. […] Eleven items are scored: area of damaged skin, involvement of nails, mouth, eyes, larynx and esophagus, scarring of hands, skin cancer, chronic wounds, alopecia and nutritional compromise. The area of damaged skin is allocated 50 points, and the 10 other items 5 points each, giving a maximum score of 100. […] Therefore, an additional EB-specific scoring instrument was used.
# [3] = test system: children with moderate to severe RDEB; experiment: Itch Assessment Scale for the Pediatric Burn Patients in clinical trial; settings: values at clinical visits after losartan initiation, FIG. 3
# From the text: In order to check whether beneficial effects could be obtained in human beings, a clinical trial has been performed. In the trial a group of about 30 patients has been selected. Patient enrollment: 28 children with molecularly confirmed diagnosis of moderate to severe RDEB, age 2-16 years (age of 25 months), were enrolled at the EB Center Freiburg. The Itch Assessment Scale for the Pediatric Burn Patients, a validated instrument for assessing skin burns, which are similar to RDEB. The scale is based on the Itch Man Scale developed by Blakeney & Marvin (2000), and was used to evaluate the intensity of itch of the trial participants. […] Values taken at clinical visits were determined.
# [4] = test system: children with moderate to severe RDEB; experiment: Wong-Baker FACES Scale for Pain in clinical trial; settings: first interim analysis, FIG. 6
# From the text: In order to check whether beneficial effects could be obtained in human beings, a clinical trial has been performed. In the trial a group of about 30 patients has been selected. Patient enrollment: 28 children with molecularly confirmed diagnosis of moderate to severe RDEB, age 2-16 years (age of 25 months), were enrolled at the EB Center Freiburg. The Wong-Baker FACES Scale for Pain that uses happy or sad faces shown in the score http://wongbakerfaces.org/) is the preferred method of pain reporting by children. This validated tool is widely used to rate pain severity in children with both chronic and acute pain.
# [5] = test system: children with moderate to severe RDEB; experiment: Quality of Life in EB (QOLEB) Questionnaire in clinical trial; settings: first interim analysis, FIG. 7
# From the text: In order to check whether beneficial effects could be obtained in human beings, a clinical trial has been performed. In the trial a group of about 30 patients has been selected. Patient enrollment: 28 children with molecularly confirmed diagnosis of moderate to severe RDEB, age 2-16 years (age of 25 months), were enrolled at the EB Center Freiburg. Although pain and itch scores partly reflect the patients' quality of life, specific scores were used. […] Therefore, children under the age of 10 years included their parents' advice when completing the questionnaires, and children under 8 years of age or unable to read, have the parents completed the questionnaire.
# [6] = test system: children with moderate to severe RDEB; experiment: Children's Dermatology Life Quality Index (CDLQI) in clinical trial
# From the text: In order to check whether beneficial effects could be obtained in human beings, a clinical trial has been performed. In the trial a group of about 30 patients has been selected. Patient enrollment: 28 children with molecularly confirmed diagnosis of moderate to severe RDEB, age 2-16 years (age of 25 months), were enrolled at the EB Center Freiburg. The Children's Dermatology Life Quality Index (CDLQI) was used in addition, since it has a version for young children, age of >4, using cartoon images. It consists of 10 questions regarding how the skin disease has affected the patient's quality of life over the past 1 week, in each of 10 domains, with 4 possible responses graded 0-3 (range of scores 0-30).
# [7] = test system: CRP, IL6, Serum amyloid A and TNFα; experiment: Serum biomarkers of inflammation in clinical trial; settings: over the trial, FIG. 8
# Procedure: A blood sample for serum analysis was collected at all clinic visits. The analyses includes TGF levels, and biomarkers of inflammation and fibrosis, such as TNFα, CRP, ferritin, IL6 (FIG. 4) and amyloid. TGFβ and TNFα was analyzed by specific quantitative ELISAs (RayBiotech) at the EB Center Freiburg, while CRP, ferritin, IL6 and amyloid are measured at the central laboratories of the Medical Centers in Freiburg.
# [8] = test system: children with moderate to severe RDEB; experiment: Safety and tolerability in clinical trial (adverse events, blood pressure, heart function)
# Procedure: Furthermore, the proPNB(pg/ml) was also measured on each visit to evaluate for signs of heart failure.
# [9] = test system: children with moderate to severe RDEB; experiment: Morphometric scoring of finger contractures (little span) in clinical trial; settings: second interim analysis, FIG. 12
# Procedure: During the ongoing clinical trial described in the preceding examples, an additional novel assessment parameter was added to measure progression of finger contractures: A morphometric scoring instrument that measures the length of the span when spreading fingers as far as possible. In particular, the following parameters were measured: maximal distance of thumb tip and index finger tip (separately for left hand and right hand and the mean value of both hands), also known as 'little span'. In RDEB, disease progression leads to shortening of the span and development of pseudosyndactylies and […] deformities.
# RDEB patients = experiment: Clinical trial in RDEB patients, overall outcome; settings: second interim analysis, summary
# Procedure: In order to check whether beneficial effects could be obtained in human beings, a clinical trial has been performed. In the trial a group of about 30 patients has been selected. Patient enrollment: 28 children with molecularly confirmed diagnosis of moderate to severe RDEB, age 2-16 years (age of 25 months), were enrolled at the EB Center Freiburg. […] Such parameters were measured in the course of the trial.
# [10] = second interim analysis, FIG. 10
# [11] = first interim analysis, after 18 patients had completed the study
structure (smiles),measurement,setting,value
"CCCCc1nc(Cl)c(CO)n1Cc1ccc(-c2ccccc2-c2nnn[nH]2)cc1 [Losartan, 2-Butyl-4-chloro-1-[[2′-(1H-tetrazol-5-yl)[1,1-biphenyl]-4-yl]methyl]-1H-imidazol-5-methanol]",EBDASI score,"[1]; during treatment, clinic visit 1 to clinic visit 5, FIG. 2",improved substantially
same,EBDASI activity score,"[1]; first interim analysis, FIG. 7",improved
same,EBDASI damage score,"[1]; first interim analysis, FIG. 7",improved
same,EBDASI activity score,[1]; [10],showed improvement
same,EBDASI damage score,[1]; [10],showed improvement
same,EBDASI score,[1]; [10],significantly improved
same,EBDASI total score (sum of activity and damage score),[1]; [10],showed improvement
same,BEBS,[2],improved
same,Itch score,[3],a reduction of itch
same,Pain assessment score,[4],went statistically to a lower level
same,Quality of life score QoLEB,[5],improvement
same,Quality of life score CDLQI,"[6]; first interim analysis, FIG. 7",improvement
same,CDLQI score,"[6]; second interim analysis, baseline (clinic visit 1, day 1) vs clinic visit 5, week 40, FIG. 11",amelioration of the quality of life
same,CRP,[7],went down
same,IL6,[7],went down
same,Serum amyloid A,[7],went down
same,TNFα,[7],went down
same,Ejection fraction (heart's pump function),[8]; first interim analysis,no differences
same,Adverse events related to the Losartan treatment,[8]; [11],no adverse events had been observed
same,Overall safety and tolerability of treatment,[8]; [11],safe and well tolerated
same,"proPNB, signs of heart failure",[8]; measured on each visit,no significant changes
same,Impact on the blood pressure,"[8]; normotensive patients, dosage regimen as disclosed",without negative impact
same,"Number of adverse events possibly related to trial medication (pruritus, not serious)",[8]; second interim analysis,1
same,Safety of treatment,[8]; second interim analysis,safe
same,Little span (distance between tip of the thumb and tip of the index finger),[9],increase
same,Disease progression,RDEB patients,reduced disease progression
same,Disease symptoms,RDEB patients,improved disease symptoms
